This note sets out measurements from patent US4895864A, “Antibiotic TAN-950A, its production and use” (Takeda Chemical Industries, Ltd., priority 1987, dated 1990).

The subject of data set [1] is mice. Put plainly: Acute toxicity in mice. The settings on record: intravenous, subdermal, intraperitoneal or oral, 4000 mg/kg. The format is in vivo.
Data set [2] can be described thus: Solubility. The class given is physicochemical. An excerpt:
The physico-chemical properties of TAN-950A (monosodium salt) obtained in Example 2 described later are as follows.

Data set [3] deals with Candida albicans. Put plainly: Therapeutic effect on experimental candidosis in mice. The class given is in vivo. Particulars: intravenously infected, twice administration, total of dosages.
Data set [4] relates to Candida albicans. In words: TLC-bioautography using Candida albicans. The settings on record: aqueous layer of culture filtrate; cellulose f, acetonitrile:water (3:1). The class given is cell-based.
Data set [5] has as its system Candida tropicalis IFO0006. In words: Paper disc agar diffusion, growth-inhibition zone. The format is cell-based. Particulars: monosodium salt, disc 1000 μg/ml, medium D, 28 °C, 48 h, read-out: Diameter of growth-inhibition zone. The procedure:
(§1) Paper discs (8 mm. in diameter, manufactured by Toyo Seisakusho) immersed in an aqueous solution of the antibiotic TAN-950A (monosodium salt) (1000 μg/ml) were put on agar plates seeded with the test organism, and these agar plates were incubated at a given […] for a given period of time. In the Table, "0" means no formation of the growth-inhibition zone. Culture media employed are as follows:
(§2) D: Yeast nitrogen base agar medium (Difco Laboratories, USA) supplemented with glucose (2%) and agar (1.5%)
(In general: In agar diffusion tests the substance spreads into inoculated agar from a disc or well.)

The subject of data set [6] is Candida parapsilosis IFO1396. In words: Paper disc agar diffusion, growth-inhibition zone. Particulars: Lodderomyces parapsilosis, monosodium salt, disc 1000 μg/ml, medium D, 28 °C, 48 h, read-out: Diameter of growth-inhibition zone. The format is cell-based. The protocol: as §1, §2
The test system of data set [7] is Microsporum gypseum IFO 6075. In words: Paper disc agar diffusion, growth-inhibition zone. The format is cell-based. Particulars: Nannizzia gypsea, IFO6075; monosodium salt, disc 1000 μg/ml; medium D, 28 °C, 72 h; read-out: Diameter of growth-inhibition zone. The protocol:
as §1, §2

For data set [8], the system named is Candida parakrusei IFO0640. In words: Paper disc agar diffusion, growth-inhibition zone. Particulars: monosodium salt, disc 1000 μg/ml, medium D, 28 °C, 48 h, read-out: Diameter of growth-inhibition zone. The format is cell-based. The procedure: as §1, §2
In data set [9] the test system is Trichophyton rubrum IFO 5467. Put plainly: Paper disc agar diffusion, growth-inhibition zone. Particulars: IFO5467, monosodium salt, disc 1000 μg/ml, 28 °C, read-out: Diameter of growth-inhibition zone. The class given is cell-based. The protocol: as §1
A: Sabouraud's dextrose agar medium
as §2

In data set [10] the test system is Escherichia coli NIH JC-2. Put plainly: Paper disc agar diffusion, growth-inhibition zone. The class given is cell-based. The settings on record: NIHJC2, monosodium salt, disc 1000 μg/ml, medium C, 37 °C, 20 h, 0 = no zone, read-out: Diameter of growth-inhibition zone. The procedure: as §1
(§3) C: Trypticase soy agar (Becton Dickinson Co., USA)

In data set [11] the test system is Bacillus subtilis PCI 219. Put plainly: Paper disc agar diffusion, growth-inhibition zone. The settings on record: PCI219, monosodium salt, disc 1000 μg/ml, medium C, 37 °C, 20 h, 0 = no zone, read-out: Diameter of growth-inhibition zone. The class given is cell-based. The protocol:
as §1, §3

Data set [12] deals with Torulopsis glabrata IFO 1085. Put plainly: Paper disc agar diffusion, growth-inhibition zone. Particulars: Nakaseomyces glabratus, IFO1085, 48 h, monosodium salt, disc 1000 μg/ml, 28 °C, read-out: Diameter of growth-inhibition zone. The class given is cell-based. The protocol:
as §1
(§4) B: Yeast nitrogen base agar medium (Difco Laboratories, USA) supplemented with L-asparagine (0.17%)
as §2

The test system of data set [13] is Penicillium chrysogenum IFO 4626. In words: Paper disc agar diffusion, growth-inhibition zone. The format is cell-based. The settings on record: IFO4626, monosodium salt, disc 1000 μg/ml, 28 °C, read-out: Diameter of growth-inhibition zone. The protocol: as §1, §4, §2
For data set [14], the system named is Cryptococcus neoformans IFO 0410. Put plainly: Paper disc agar diffusion, growth-inhibition zone. The format is cell-based. The settings on record: IFO0410, 48 h, monosodium salt, disc 1000 μg/ml, 28 °C, read-out: Diameter of growth-inhibition zone. The procedure: as §1, §4, §2
The subject of data set [15] is Candida utilis IFO 0619. In words: Paper disc agar diffusion, growth-inhibition zone. The settings on record: monosodium salt, disc 1000 μg/ml, 28 °C, 48 h, 0 = no zone. The format is cell-based. The procedure:
as §1, §4, §2

In data set [16] the test system is Candida albicans IFO 0583. Put plainly: Paper disc agar diffusion, growth-inhibition zone. The class given is cell-based. Particulars: IFO0583, 48 h, monosodium salt, disc 1000 μg/ml, 28 °C, read-out: Diameter of growth-inhibition zone. The protocol:
as §1, §4, §2

Data set [17] concerns Saccharomyces cerevisiae IFO 0209. Put plainly: Paper disc agar diffusion, growth-inhibition zone. The format is cell-based. The settings on record: IFO0209, 48 h, monosodium salt, disc 1000 μg/ml, 28 °C, read-out: Diameter of growth-inhibition zone. The procedure:
as §1, §4, §2

Data set [18] relates to Aspergillus fumigatus IFO 6344. In words: Paper disc agar diffusion, growth-inhibition zone. Particulars: IFO6344, 48 h, monosodium salt, disc 1000 μg/ml, 28 °C, read-out: Diameter of growth-inhibition zone. The format is cell-based. The protocol:
as §1, §4, §2

The test system of data set [19] is Filobasidium uniguttulatum IFO 0699. Put plainly: Paper disc agar diffusion, growth-inhibition zone. The class given is cell-based. Particulars: IFO0699, 48 h, monosodium salt, disc 1000 μg/ml, 28 °C, read-out: Diameter of growth-inhibition zone. The protocol: as §1, §4, §2

Molecules are shown by their SMILES. Counter-ions that a name gives are not always drawn. Like-named read-outs stand apart in the source and are kept apart here.

Take `N[C@@H](Cc1c[nH]oc1=O)C(=O)O` [TAN-950A monosodium salt]: in data set [1], the acute toxicity result was “No acute toxicity”. Besides, the Solubility result in data set [2] (acetone) is recorded as “Sparingly soluble”; in data set [2] (chloroform), “Sparingly soluble”; in data set [2] (dimethyl sulfoxide) it was “Soluble”; in [2] (ethyl acetate), “Sparingly soluble”; in data set [2] (methanol), “Soluble”; in data set [2] (water) it was “Soluble”. Besides, the ED50 (in general, the dose at which the effect has come halfway, by size or by number of responders) in data set [3] (oral) was determined as 105 mg/kg; in [3] (sc, subcutaneous), 40 mg/kg.

In the case of `N[C@@H](Cc1c[nH]oc1=O)C(=O)O` [TAN-950A], in data set [4], the “inhibition zone in TLC-bioautography” value is recorded as “inhibition zones”. In addition, the zone of inhibition (in general, the extent of the growth-free halo in a diffusion test) at 1000 µg/mL in data set [5] came to 25 mm; in [6], 40 mm; in data set [7], 41 mm; in data set [8] it was 43 mm; in data set [9] (medium A, 48 h, 0 = no zone), 0 mm; in data set [9] (medium D, 72 h), 47 mm. The zone of inhibition at 1000 µg/mL was 0 mm in data set [10]; 0 mm in [11]; 23 mm in data set [12] (medium B); 26 mm in [12] (medium D); 0 mm in [13] (medium B, 66 h, 0 = no zone); 35 mm in [13] (medium D, 72 h). Further, the zone of inhibition at 1000 µg/mL was determined as 0 mm in [14] (medium B, 0 = no zone); 27 mm in data set [14] (medium D); 0 mm in data set [15] (Williopsis jadinii, IFO0619, medium B, read-out: Diameter of growth-inhibition zone); 21 mm in data set [16] (medium B); 34 mm in data set [16] (medium D); 24 mm in data set [17] (medium B). Also, the zone of inhibition at 1000 µg/mL in data set [17] (medium D) was 25 mm; in data set [18] (medium B, 0 = no zone), 0 mm; in data set [18] (medium D) it was 57 mm; in data set [19] (medium B), 23 mm; in data set [19] (medium D), 35 mm. In addition, the “Diameter of growth-inhibition zone” value in [15] (medium D) came out at 0 mm.
